Results: PMC5688156, “The natural product carolacton inhibits folate-dependent C1 metabolism by targeting FolD/MTHFD” (Nature Communications, 2017)

Target: T1, hsMTHFD2 (Homo sapiens, UniProt P13995)
T1 construct: His-tag (vector pHis-TEV) (cleaved yes); made in house; host or cells: E. coli BL21 (DE3)
T1 sequence (P13995 36-350): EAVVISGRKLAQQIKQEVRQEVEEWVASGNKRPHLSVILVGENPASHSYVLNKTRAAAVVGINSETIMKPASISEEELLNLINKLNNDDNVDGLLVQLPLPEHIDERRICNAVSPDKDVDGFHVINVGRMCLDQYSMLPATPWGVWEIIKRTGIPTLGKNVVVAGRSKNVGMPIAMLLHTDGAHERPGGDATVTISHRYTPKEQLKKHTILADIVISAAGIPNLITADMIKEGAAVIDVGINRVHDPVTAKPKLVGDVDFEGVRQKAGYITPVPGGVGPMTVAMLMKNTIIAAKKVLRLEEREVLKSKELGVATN
Assay: SPR binding to hsMTHFD2
Protocol: All surface plasmon resonance (SPR) experiments described in this study were performed on a Biacore X100 system. Different FolDs with or without His-tag were coupled on CM5 sensor chips (GE Healthcare) by the amine coupling method using a kit from GE Healthcare Life Sciences (Freiburg, Germany). A pH scouting process was performed before protein immobilization to test the most appropriate buffer and the protein concentration for protein coupling. Finally, 20 μg/mL of ecFolD in 10 mM maleate buffer (pH 6.8), 30 μg/mL of ecFolD Q98H in 10 mM maleate buffer (pH 6.3), 40 μg/mL of ecFolD K54N in 10 mM maleate buffer (pH 5.8), 20 μg/mL of spFolD in 10 mM maleate buffer (pH 6.0) and 15 μg/mL of MTHFD2 (His-tag cleaved) in 10 mM maleate buffer (pH 6.8) were used for coupling. In the protein immobilization procedure, the contact time was calculated based on the pH scouting results to achieve ~3000–5000 relative resonance units (RU). The buffer used in the SPR assays was 1× HBS-P buffer (10 mM HEPES pH 7.4, 150 mM NaCl, 0.05% Tween 20). The 1 mM stock solution of carolacton was prepared in 1× HBS-P buffer and diluted to different concentration ranges by two-fold serial dilution. In the SPR assay, the association time was 180 s and the dissociation time was 600 s. Data analysis was performed using the Biacore evaluation software. […]

CO[C@H](CC(=O)O)[C@@H](C)C(=O)[C@H](C)/C=C(\C)[C@H]1OC(=O)[C@H](O)[C@H](O)/C=C/[C@H](C)CCC[C@@H]1C [carolacton]
koff: 0.0222 s⁻¹ | Kd (1:1 interaction model fit of association and dissociation signals): 19 nM
